Data on one molecule can be found in patent publication US4061740A, “Liquid compositions containing a polyethylene glycol safener and an organophosphorus pesticide” (priority 1976, dated 1977).

In this experiment the test system is Root-knot Nematode (Meloidogyne incognita). Description: Control of root-knot nematode on tomato in the greenhouse. The format is in vivo, Meloidogyne incognita (on tomato, Lycopersicon esculentum). The text has this: Evaluation of a liquid formulation consisting of a solution of 2-diethoxyphosphinylimino-1,3-dithietane in polyethylene glycol for the control of root-knot nematode (Meloidogyne incognita) on tomato in the greenhouse.
1. 2-Diethoxyphosphinylimino-1,3-dithietane, 91% real. (Active ingredient; a.i.)
2. Liquid formulation consisting of 20.9%, by weight, of a.i. and 79.1%, by weight, of polyethylene glycol of an average molecular weight of 400.
Tomato (Lycopersicon esculentum; Cv. Bonny Best).
Root-knot Nematode (Meloidogyne incognita) inoculum. [formula] 2-Diethoxyphosphinylimino-1,3-dithietane at 0.75 mg, 1.5 mg and 3.0 mg/liter of soil. Polyethylene glycol blank at 14.4 mg/liter of soil.
All compounds are made up as acetone solutions. One liter of moist potting soil is placed in a suitable stainless steel beaker. One ml of candidate solution is distributed, drop by drop, over the surface of the soil. The beaker is then capped and placed on an off-center rotary mixer and mixed for 2 minutes (about 60 revolutions). After mixing, the soil is divided between two 0.5 liter paper cups by filling the cups half full of soil, then distributing 25 ml root-knot nematode inoculum on the soil and filling the remainder of the container with treated soil. Seedling tomato plants are transplanted into the cups of soil the same day, watered and removed to the greenhouse. After about 4 weeks, the tomato plants are carefully removed from the containers, the soil washed from the roots, and the roots are then examined for nematode galling.
The roots are indexed for galling by the following system: […]

As to `CCOP(=O)(N=C1SCS1)OCC` [Formulation 1, 2-Diethoxyphosphinylimino-1,3-dithietane], the “Root-knot index, Average of 3 Replicates” value stood at 7.0 (0.75 mg/l active ingredient) and 4.7 (1.5 mg/l active ingredient). For the same molecule, the Root-knot index is given as 8 (61-70% of roots galled) (0.75 mg/l active ingredient, replicate 1); 8 (61-70% of roots galled) (0.75 mg/l active ingredient, replicate 2); 5 (31-40% of roots galled) (0.75 mg/l active ingredient, replicate 3); 6 (41-50% of roots galled) (1.5 mg/l active ingredient, replicate 1); 6 (41-50% of roots galled) (1.5 mg/l active ingredient, replicate 2); 2 (6-10% of roots galled) (1.5 mg/l active ingredient, replicate 3). Besides, the Root-knot index is, setting by setting: (3.0 mg/l active ingredient, replicate 1) 0; (3.0 mg/l active ingredient, replicate 2) 0; (3.0 mg/l active ingredient, replicate 3) “T (less than 1% of roots with galls.)”. The “protection of the tomato roots from the root-knot nematode” value reads like this: (0.75 mg/l of soil) “poor”; (1.5 mg/l of soil) “poor”; (3.0 mg/l of soil) “excellent”.
